≈ marks a conversion by molar mass, not a printed value. Where two headings read alike, the source gives them in different places.
Columns and labels:
[1] = test system: MDRP with metallo-beta-lactamase (multidrug-resistant Pseudomonas aeruginosa); assay: Minimum inhibitory concentrations for the blood culture isolate of the patient; format: cell-based; conditions: for MIC: Pseudomonas aeruginosa, read-out: minimum inhibitory concentration
[2] = test system: multidrug-resistant Pseudomonas aeruginosa infection; conditions: HD patient with MDRP infection; CMS 75 mg every 24 h after loading dose 250 mg, in combination with meropenem 1 g every 24 h; after a few days
Experimental: (§1) A patient (weight 52 kg, height 153.2 cm) with antineutrophilic cytoplasmic antibody-positive vasculitis undergoing renal replacement (intermittent haemodialysis, HD) was admitted to the hospital for rituximab and steroid pulse therapy. The HD patient’s disease had been complicated by Pneumocystis jiroveci pneumonia, herpes zoster, and MDRP infections. […] With the preliminary information of positive blood cultures, empiric treatment with cefepime (1 g every 12 h) was performed over 5 d. […] In addition, the following treatment parameters were employed: dialysate flow rate, 500 mL/min; blood flow rate, 100 mL/min; membrane surface area, 1.5 m^2; membrane type, APS-15MD New; HD frequency, twice per week; and session duration, 3 h. Samples were collected immediately prior to a dose or immediately prior to the next dose if CMS was not being administered every 24 h. The actual times of CMS administration and blood sampling were recorded. Samples were collected in potassium (K)2-ethylenediaminetetraacetic acid (EDTA)-containing tubes and centrifuged for 15 min within 2 h of collection. The resulting plasma sample was measured on the same day as blood collection. The HD clearance (CLHD) for colistin was calculated every hour during the start and end of the HD session as: […]

[3] = Derivative stability (FMOC-Cl derivatives in eluted solution); format: physicochemical; conditions: mean ± SD; for Refrigerated, recovery relative to freshly prepared samples: 4 °C; for Refrigerated, recovery relative to freshly prepared samples / Room temperature, recovery relative to freshly prepared samples / Frozen, recovery relative to freshly prepared samples: 7 d, HPLC-fluorescence peak area; for Refrigerated, recovery relative to freshly prepared samples / Frozen, recovery relative to freshly prepared samples: dark; for Room temperature, recovery relative to freshly prepared samples: 25 ± 1 °C, normal fluorescent light; for Freeze-thaw, recovery relative to freshly prepared samples: three cycles −23 °C to room temperature on consecutive days; for Frozen, recovery relative to freshly prepared samples: −23 °C, closed glass test tubes
Experimental: The derivative stabilities of the samples containing 0.10 and 8.0 μg/mL of the standard colistin solution and the internal standard were evaluated at − 23 (frozen), 4 (refrigerated), and 25 ± 1 °C (room temperature) over 7 d. Freeze-thaw stability was assessed after three complete freeze-thaw cycles (− 23 °C to room temperature) on consecutive days. The stability of the target compounds was presented as the recovery (%) relative to the freshly prepared samples. The solutions at room temperature were exposed to normal fluorescent light, while the frozen and refrigerated samples were stored in a dark refrigerator and were exposed to light only during sampling. The storage temperatures were closely monitored throughout the study.

[4] = set-up: method as in 2 sources, ref Sorlí et al. [24] ||| ref Garonzik et al. [25]; conditions: cited from earlier work
[5] = Plasma colistin concentration of a haemodialysis patient on CMS therapy (HPLC with fluorescence detection); format: in vivo, human; conditions: K2-EDTA plasma; for colistin concentration in plasma: HD patient
Experimental: HPLC analysis was performed at 25 ± 1 °C under isocratic conditions. All measurements were carried out at excitation and emission wavelengths of 260 nm and 315 nm, respectively, and the column temperature was maintained at 40 °C. The mobile phase consisted of a mixture of acetonitrile/tetrahydrofuran/distilled water (50:14:20, v/v/v) and was delivered at a flow rate of 1.6 mL/min. The sample injection volume was 50 μL.
Initially, the colistin and the internal standard (netilmicin sulfate, 20 μL) stock solutions were added to a portion of serum (200 μL). Following the addition of methanol (25 μL) and 10% trichloroacetic acid (25 μL) to the sample, it was vortexed for 10 s prior to centrifugation at 13,000 rpm for 5 min. The supernatant was then placed in an additional centrifuge tube and mixed with a 1 M sodium hydroxide solution (10 μL). The sample solution was loaded onto the solid-phase extraction (SPE) cartridge, which had been previously conditioned according to the following procedure.
SPE C18 cartridges (55 μm, 100 mg/mL; Phenomenex, Torrance, USA) were conditioned using acetone (1 mL) and methanol (1 mL) and equilibrated with 1% carbonate buffer (1 mL). The sample was then applied to the wet cartridge. After passing the sample through the cartridge, it was rinsed with methanol (1 mL) and carbonate buffer (1 mL), followed by a 100 mM FMOC-Cl solution (60 μL) and 90% methanol (3 mL). The derivatives were then eluted into a glass culture tube using acetone (500 μL). The eluted solution was mixed with a 0.6 M boric acid solution (100 μL) prior to vortex-mixing for 10 s, and then the obtained sample was injected into the HPLC system. All procedures were conducted at 25 ± 1 °C.
A patient (weight 52 kg, height 153.2 cm) with antineutrophilic cytoplasmic antibody-positive vasculitis undergoing renal replacement (intermittent haemodialysis, HD) was admitted to the hospital for rituximab and steroid pulse therapy. The HD patient’s disease had been complicated by Pneumocystis jiroveci pneumonia, herpes zoster, and MDRP infections. […] With the preliminary information of positive blood cultures, empiric treatment with cefepime (1 g every 12 h) was performed over 5 d. […] In addition, the following treatment parameters were employed: dialysate flow rate, 500 mL/min; blood flow rate, 100 mL/min; membrane surface area, 1.5 m^2; membrane type, APS-15MD New; HD frequency, twice per week; and session duration, 3 h. Samples were collected immediately prior to a dose or immediately prior to the next dose if CMS was not being administered every 24 h. The actual times of CMS administration and blood sampling were recorded. Samples were collected in potassium (K)2-ethylenediaminetetraacetic acid (EDTA)-containing tubes and centrifuged for 15 min within 2 h of collection. The resulting plasma sample was measured on the same day as blood collection. The HD clearance (CLHD) for colistin was calculated every hour during the start and end of the HD session as:
CMS was administered to the HD patient over 7 d (days 6–12), and six samples of blood were collected between days 7 and 12 of CMS therapy (Fig. 3). The initial sample was collected on day 7 approximately 20 h after the administration of CMS. All other samples were collected ~ 24 h after each dose. On the day of dialysis, the blood samples were collected at the start and end of the HD session.

[6] = human, in vivo
Experimental: as §1

[7] = blood cultures from two peripheral vein sites of the HD patient, MDRP with metallo-beta-lactamase
[8] = critically ill patients, including those on HD and continuous renal replacement, ref Garonzik et al. [25]
[9] = patients suffering from nephrotoxicity, ref Sorlí et al. [24]

With `C[C@H]1[C@H](NC(=O)/C(=N\OC(C)(C)C(=O)O)c2csc(N)n2)C(=O)N1S(=O)(=O)O` [aztreonam] as the compound, how does the MIC [1] read?
Its MIC is 16 µg/mL (≈ 36.7 µM).

Which “blood cultures after switching to CMS therapy” value [2] does the source give for colistin methanesulfonate [CMS] here?
Its value is “negative”.

For colistin A, which “Refrigerated, recovery relative to freshly prepared samples” value ([3]; 0.10 μg/mL) is on record?
The value was 100 ± 1%.

And the “Room temperature, recovery relative to freshly prepared samples” value ([3]; 0.10 μg/mL)?
Its value is 102 ± 3%.

And the “Freeze-thaw, recovery relative to freshly prepared samples” value ([3]; 0.10 μg/mL)?
Its value is 97 ± 3%.

And the “Frozen, recovery relative to freshly prepared samples” value ([3]; 0.10 μg/mL)?
Its value is 105 ± 3%.

And the “Refrigerated, recovery relative to freshly prepared samples” value ([3]; 8.00 μg/mL)?
Its value is 100 ± 3%.

What about the “Room temperature, recovery relative to freshly prepared samples” value ([3]; 8.00 μg/mL) of the same compound?
The value was 99 ± 2%.

What about the “Freeze-thaw, recovery relative to freshly prepared samples” value ([3]; 8.00 μg/mL) of the same compound?
The value was 100 ± 2%.

What about the “Frozen, recovery relative to freshly prepared samples” value ([3]; 8.00 μg/mL) of the same compound?
The value was 102 ± 2%.

What does the source list for `CCN[C@@H]1C[C@H](N)[C@@H](O[C@H]2OC(CN)=CC[C@H]2N)[C@H](O)[C@H]1O[C@H]1OC[C@](C)(O)[C@H](NC)[C@H]1O` [Netilmicin, netilmicin]?
Refrigerated, recovery relative to freshly prepared samples ([3]; 0.10 μg/mL): 104 ± 2%; Room temperature, recovery relative to freshly prepared samples ([3]; 0.10 μg/mL): 102 ± 3%; Freeze-thaw, recovery relative to freshly prepared samples ([3]; 0.10 μg/mL): 98 ± 3%; Frozen, recovery relative to freshly prepared samples ([3]; 0.10 μg/mL): 102 ± 3%; Refrigerated, recovery relative to freshly prepared samples ([3]; 8.00 μg/mL): 101 ± 2%; Room temperature, recovery relative to freshly prepared samples ([3]; 8.00 μg/mL): 103 ± 2%; Freeze-thaw, recovery relative to freshly prepared samples ([3]; 8.00 μg/mL): 102 ± 2%; Frozen, recovery relative to freshly prepared samples ([3]; 8.00 μg/mL): 103 ± 3%

Which MIC [1, 7] does the source give for `NCC[C@H](O)C(=O)N[C@@H]1C[C@H](N)[C@@H](O[C@H]2O[C@H](CN)[C@@H](O)[C@H](O)[C@H]2O)[C@H](O)[C@H]1O[C@H]1O[C@H](CO)[C@@H](O)[C@H](N)[C@H]1O` [amikacin] here?
The MIC was > 16 µg/mL.

Which MIC [1, 7] does the source give for `CCN1CCN(C(=O)N[C@@H](C(=O)N[C@@H]2C(=O)N3[C@@H]2SC(C)(C)[C@@H]3C(=O)O)c2ccccc2)C(=O)C1=O` [piperacillin] here?
Its MIC is 8 µg/mL (≈ 15.5 µM).

With colistin as the compound, how does the “average steady-state concentration of colistin, median” value [4, 8] read?
The value was 2.36 µg/mL.

And the “average steady-state concentration of colistin, range” value [4, 8]?
The value was 0.48 to 9.38 µg/mL.

What about the “minimal concentration of colistin, median” value [4, 9] of the same compound?
The value was 1.18 µg/mL.

And the “minimal concentration of colistin, range” value [4, 9]?
Its value is 0.16 to 5.99 µg/mL.

And the “peak concentration of colistin, median” value [4, 9]?
The value was 1.81 µg/mL.

And the “peak concentration of colistin, range” value [4, 9]?
Its value is 0.16 to 6.12 µg/mL.

What about the “colistin concentration in plasma” value ([5]; day 7, approximately 20 h after administration of CMS (loading dose 250 mg)) of the same compound?
The value was 7.85 µg/mL.

And the “colistin concentration in plasma” value ([5]; day 8, ~24 h after dose, CMS 75 mg every 24 h)?
Its value is 5.95 µg/mL.

And the “colistin concentration in plasma” value ([5]; day 9, ~24 h after dose, CMS 75 mg every 24 h)?
Its value is 3.91 µg/mL.

And the “colistin concentration in plasma” value ([5]; day 12, ~24 h after dose, CMS 75 mg every 24 h)?
Its value is 3.70 µg/mL.

And the “colistin concentration in plasma at the end of the HD session” value ([5]; day 10, end of 3 h HD session)?
Its value is 2.75 µg/mL.

What about the “colistin concentration in plasma at the start of the HD session” value ([5]; day 10, start of 3 h HD session) of the same compound?
Its value is 4.57 µg/mL.

And the “HD clearance (CLHD)” value [6]?
Its value is 30.7 mL/min.

What about the minimum inhibitory concentration [1, 7] of the same compound?
Its minimum inhibitory concentration is ≤ 1 µg/mL.

Which MIC [1] does the source give for `O=C(O)c1cn(C2CC2)c2cc(N3CCNCC3)c(F)cc2c1=O` [ciprofloxacin] here?
Its MIC is > 4 µg/mL.

With `CN(C)c1ccc(O)c2c1C[C@H]1C[C@H]3[C@H](N(C)C)C(O)=C(C(N)=O)C(=O)[C@@]3(O)C(O)=C1C2=O` [minocycline] as the compound, how does the MIC [1, 7] read?
The MIC was > 8 µg/mL.

Which results are given for colistin B?
Refrigerated, recovery relative to freshly prepared samples ([3]; 0.10 μg/mL): 102 ± 2%; Room temperature, recovery relative to freshly prepared samples ([3]; 0.10 μg/mL): 102 ± 2%; Freeze-thaw, recovery relative to freshly prepared samples ([3]; 0.10 μg/mL): 102 ± 3%; Frozen, recovery relative to freshly prepared samples ([3]; 0.10 μg/mL): 105 ± 2%; Refrigerated, recovery relative to freshly prepared samples ([3]; 8.00 μg/mL): 98 ± 3%; Room temperature, recovery relative to freshly prepared samples ([3]; 8.00 μg/mL): 101 ± 2%; Freeze-thaw, recovery relative to freshly prepared samples ([3]; 8.00 μg/mL): 99 ± 3%; Frozen, recovery relative to freshly prepared samples ([3]; 8.00 μg/mL): 100 ± 3%

With `CC(C)(O/N=C(\C(=O)N[C@@H]1C(=O)N2C(C(=O)[O-])=C(C[n+]3ccccc3)CS[C@H]12)c1csc(N)n1)C(=O)O` [ceftazidime] as the compound, how does the MIC [1, 7] read?
The MIC was > 32 µg/mL.

For `C[C@@H](O)[C@H]1C(=O)N2C(C(=O)O)=C(S[C@@H]3CN[C@H](C(=O)N(C)C)C3)[C@H](C)[C@H]12` [meropenem], which MIC [1, 7] is on record?
The MIC was > 8 µg/mL.

With `CO/N=C(\C(=O)N[C@@H]1C(=O)N2C(C(=O)[O-])=C(C[N+]3(C)CCCC3)CS[C@H]12)c1csc(N)n1` [cefepime] as the compound, how does the MIC [1] read?
The MIC was > 32 µg/mL.

With `CNC(C)C1CCC(N)C(OC2C(N)CC(N)C(OC3OCC(C)(O)C(NC)C3O)C2O)O1` (stereo not drawn) [gentamicin] as the compound, how does the MIC [1, 7] read?
Its MIC is > 16 µg/mL.

From article PMC6100703, “Rapid, simple, and clinically applicable high-performance liquid chromatography method for clinical determination of plasma colistin concentrations” (Journal of Pharmaceutical Health Care and Sciences, 2018)
